We go through 73 molecules from article PMC8869358, “High-Throughput Chemical Screening and Structure-Based Models to Predict hERG Inhibition” (Biology, 2022).

Structures can show the parent of a compound that is named as a salt.

The target of the assay is hERG (Homo sapiens, UniProt Q12809). The experiment in a line: cell-based. Particulars: (-LOG10(IC50), µM).
hERG, sequence (Q12809 whole entry): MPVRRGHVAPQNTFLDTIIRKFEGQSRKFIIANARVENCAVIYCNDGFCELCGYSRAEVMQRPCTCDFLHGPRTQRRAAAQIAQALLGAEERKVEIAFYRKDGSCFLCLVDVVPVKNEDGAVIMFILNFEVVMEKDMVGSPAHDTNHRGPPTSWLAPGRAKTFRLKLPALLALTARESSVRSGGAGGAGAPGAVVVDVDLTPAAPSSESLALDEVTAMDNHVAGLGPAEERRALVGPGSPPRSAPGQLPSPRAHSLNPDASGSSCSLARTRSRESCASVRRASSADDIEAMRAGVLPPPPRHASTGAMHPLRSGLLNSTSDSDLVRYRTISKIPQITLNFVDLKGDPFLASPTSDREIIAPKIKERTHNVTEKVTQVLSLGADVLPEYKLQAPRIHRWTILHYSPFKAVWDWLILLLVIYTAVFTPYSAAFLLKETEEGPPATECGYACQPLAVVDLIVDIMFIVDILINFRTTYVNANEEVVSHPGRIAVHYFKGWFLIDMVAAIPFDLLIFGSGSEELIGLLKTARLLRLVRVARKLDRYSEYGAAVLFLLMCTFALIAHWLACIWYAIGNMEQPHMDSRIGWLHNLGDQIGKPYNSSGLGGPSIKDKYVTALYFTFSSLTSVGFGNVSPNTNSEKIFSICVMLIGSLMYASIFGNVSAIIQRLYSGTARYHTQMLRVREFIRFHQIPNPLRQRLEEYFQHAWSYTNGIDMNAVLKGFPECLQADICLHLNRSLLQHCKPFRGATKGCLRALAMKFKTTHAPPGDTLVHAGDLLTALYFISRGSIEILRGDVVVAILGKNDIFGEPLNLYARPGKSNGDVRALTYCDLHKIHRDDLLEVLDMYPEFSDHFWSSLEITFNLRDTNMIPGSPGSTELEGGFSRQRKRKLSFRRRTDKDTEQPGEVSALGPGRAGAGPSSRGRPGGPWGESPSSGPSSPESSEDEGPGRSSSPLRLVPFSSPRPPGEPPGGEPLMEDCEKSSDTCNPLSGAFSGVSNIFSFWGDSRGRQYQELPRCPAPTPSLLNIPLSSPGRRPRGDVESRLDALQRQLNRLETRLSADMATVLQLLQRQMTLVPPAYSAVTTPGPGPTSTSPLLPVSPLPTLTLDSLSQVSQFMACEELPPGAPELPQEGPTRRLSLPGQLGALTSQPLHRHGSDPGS
In turn, `COc1cc(N)c(Cl)cc1C(=O)NC1CCN(Cc2ccccc2)CC1` [Clebopride maleate] gave an IC50 of 15.7 µM. Turning to `Clc1ccc(Cn2c(CN3CCCC3)nc3ccccc32)cc1` [Clemizole hydrochloride], the IC50 was 1.34 µM. Under `CCCC(=O)O[C@]1(C(=O)CCl)[C@@H](C)C[C@H]2[C@@H]3CCC4=CC(=O)C=C[C@]4(C)[C@@]3(F)C(=O)C[C@@]21C` [Clobetasone butyrate] stands 8.01 µM. In turn, `NC(=O)C1(N2CCCCC2)CCN(CCCN2c3ccccc3CCc3ccc(Cl)cc32)CC1` [Clocapramine] had an IC50 of 1.45 µM. Molecule `C#CCOC(=O)[C@@H](C)Oc1ccc(Oc2ncc(Cl)cc2F)cc1` [Clodinafop-propargyl] showed an IC50 of 41 µM. Consider `CCN(CC)CCNC(=O)COc1ccc(Cl)cc1` [Clofexamide], for which the concentration for half-maximal inhibition (IC50) is 16.3 µM.

`Clc1ccc(C(OCCN2CCCCC2)c2ccccc2)cc1` (stereo not shown) [Cloperastine hydrochloride] had an IC50 of 0.849 µM.

Turning to `CCCCCC(C)OC(=O)COc1ccc(Cl)c2cccnc12` (stereo not shown) [Cloquintocet-mexyl], the 50% inhibitory concentration (IC50) was 16.1 µM. `CCOC(=O)COc1ccc2c(C)c(CCN(CC)CC)c(=O)oc2c1Cl` [Cloricromen hydrochloride] had a half-maximal inhibitory concentration (IC50) of 20.5 µM. In the case of `CN1CCN(C2=Nc3ccccc3Sc3ccc(Cl)cc32)CC1` [Clothiapine] it was 21.3 µM; in that of `Clc1ccccc1C(c1ccccc1)(c1ccccc1)n1ccnc1` [Clotrimazole], 25.5 µM. The molecule `CCOP(=S)(OCC)Oc1ccc2c(C)c(Cl)c(=O)oc2c1` [Coumaphos] showed an IC50 of 40.4 µM. `CCN1CCCC(OC(=O)C(c2ccccc2)c2ccccc2)C1` (stereo not shown) [Crapinon]: the IC50 is 5.35 µM. Under `CC1CCCCN1CCCOC(=O)c1ccc(OC2CCCCC2)cc1` (stereo not shown) [Cyclomethycaine] stands 2.68 µM; under `O=C1CCCCCCCCCCCCCC1` [Cyclopentadecanone], 24.5 µM; under `CCCCOC(=O)[C@@H](C)Oc1ccc(Oc2ccc(C#N)cc2F)cc1` [Cyhalofop-butyl], 4.87 µM. Under `CCCCCCOC(=O)NC(=N)c1ccc(NCc2nc3cc(C(=O)N(CCC(=O)OCC)c4ccccn4)ccc3n2C)cc1` [Dabigatran etexilate] stands 0.515 µM. In the case of `CN(C)[C@@H](CCOc1cccc2ccccc12)c1ccccc1` [Dapoxetine] it was 7.56 µM. Regarding `CCCCCCCCCCOCC(O)CN` (stereo not shown) [Decominol hydrochloride], the IC50 is 20.5 µM.

Molecule `CC(C)c1ccc2c(c1)CC[C@H]1[C@](C)(CN)CCC[C@]21C` [Dehydroabietylamine acetate] had an IC50 of 13.3 µM.

`CC(C)Nc1cccnc1N1CCN(C(=O)c2cc3cc(NS(C)(=O)=O)ccc3[nH]2)CC1` [Delavirdine] had an IC50 of 11.1 µM. In turn, `CC[N+](CC)(CC(=O)Nc1c(C)cccc1C)Cc1ccccc1` [Denatonium saccharide] showed an IC50 of 27.1 µM.

The molecule `CCCCNc1ccc(C(=O)OCCN(CC)CC)cc1` [Depolipon] gave an IC50 of 19 µM.

Turning to `COc1ccc(-c2cc(C(F)F)nn2-c2ccc(S(N)(=O)=O)cc2)cc1F` [Deracoxib], it took 23.9 µM to reach half-maximal inhibition (IC50). On to `CN1C(=O)[C@@H](NC(=O)c2cc3ccccc3[nH]2)N=C(c2ccccc2)c2ccccc21` [Devazepide], for which the IC50 was 9.52 µM. Turning to `O=C(N=NC(=O)OCc1ccccc1)OCc1ccccc1` [Dibenzyl diazene-1,2-dicarboxylate], the IC50 was 21.9 µM.

As for `CCCCOc1cc(C(=O)NCCN(CC)CC)c2ccccc2n1` [Dibucaine], it took 6.74 µM to reach half-maximal inhibition (IC50). In the case of `CN(C)S(=O)(=O)N(SC(F)(Cl)Cl)c1ccccc1` [Dichlofluanid] it was 17.4 µM; in that of `O=C1C(Cl)=C(Cl)C(=O)c2ccccc21` [Dichlone], 21.9 µM; in that of `Oc1ccc(Cl)cc1Cc1cc(Cl)ccc1O` [Dichlorophen], 27 µM. In the case of `OC(c1ccc(Cl)cc1)(c1ccc(Cl)cc1)C(Cl)(Cl)Cl` [Dicofol] it was 30.9 µM. In turn, `O=C(OC1CCCCC1)c1ccccc1C(=O)OC1CCCCC1` [Dicyclohexyl phthalate] had an IC50 of 23.1 µM. Molecule `CCCCCCCCCC[N+](C)(CCCCCCCCCC)CCC[Si](OC)(OC)OC` [Didecylmethyl(3-(trimethoxysilyl)propyl)ammonium chloride] showed a half-maximal inhibitory concentration (IC50) of 2.65 µM. Molecule `ClC1=C(Cl)[C@]2(Cl)[C@@H]3[C@@H]4C[C@@H]([C@H]5O[C@@H]45)[C@@H]3[C@@]1(Cl)C2(Cl)Cl` [Dieldrin] showed an IC50 of 33.1 µM.

`CC1COC(Cn2cncn2)(c2ccc(Oc3ccc(Cl)cc3)cc2Cl)O1` (stereo not shown) [Difenoconazole] showed an IC50 of 22.7 µM. Under `Cn1c(-c2ccccc2)cc(-c2ccccc2)[n+]1C` [Difenzoquat metilsulfate] stands 34.7 µM; under `CC(C(O)c1ccccc1)N(C)CCOC(c1ccccc1)c1ccccc1` (stereo not shown) [Difeterol], 1.83 µM; under `C[C@@H]1CC[C@@]2(OC1)O[C@H]1[C@@H](O)[C@H]3[C@@H]4CC[C@H]5C[C@@H](O[C@@H]6O[C@H](CO)[C@H](O[C@@H]7O[C@H](CO)[C@@H](O)[C@H](O[C@@H]8OC[C@@H](O)[C@H](O)[C@H]8O)[C@H]7O[C@@H]7O[C@H](CO)[C@@H](O)[C@H](O[C@@H]8O[C@H](CO)[C@@H](O)[C@H](O)[C@H]8O)[C@H]7O)[C@H](O)[C@H]6O)[C@H](O)C[C@]5(C)[C@H]4CC[C@]3(C)[C@H]1[C@@H]2C` [Digitonin], 8.9 µM. `CN1C[C@H](C(=O)N[C@]2(C)O[C@@]3(O)[C@@H]4CCCN4C(=O)[C@H](Cc4ccccc4)N3C2=O)C[C@@H]2c3cccc4[nH]cc(c34)C[C@H]21` [Dihydroergotamine] gave an IC50 of 19 µM. Under `Cc1ccc(S(=O)(=O)C(I)I)cc1` [Diiodomethyl 4-methylphenyl sulfone] stands 46.2 µM. On to `COc1cc(C(=O)OCCCN2CCCN(CCCOC(=O)c3cc(OC)c(OC)c(OC)c3)CC2)cc(OC)c1OC` [Dilazep], for which the IC50 was 6.01 µM. In the case of `CCCCc1cc2ccccc2c(OCCN(C)C)n1` [Dimethisoquin hydrochloride], it took 3.65 µM to reach half-maximal inhibition (IC50). Under `COc1ccc(C(=CC(=O)N2CCOCC2)c2ccc(Cl)cc2)cc1OC` [Dimethomorph] stands 11.8 µM; under `CC(C)(C)C(O)/C(=C\c1ccc(Cl)cc1Cl)n1cncn1` (stereo not shown) [Diniconazole], 61.6 µM; under `O=[N+]([O-])c1cccc(S(=O)(=O)NCCNS(=O)(=O)c2cccc([N+](=O)[O-])c2)c1` [Dinsed], 14.5 µM. `C=CC(=O)OCC(CO)(COCC(COC(=O)C=C)(COC(=O)C=C)COC(=O)C=C)COC(=O)C=C` [Dipentaerythritol pentaacrylate] had an IC50 of 8.28 µM.

Turning to `O=C(Nc1ccccc1)OCC(CN1CCCCC1)OC(=O)Nc1ccccc1` (stereo not shown) [Diperodon hydrochloride], the IC50 is 6.01 µM.

For the molecule `C[N+]1(C)CCC(=C(c2ccccc2)c2ccccc2)CC1` [Diphemanil methylsulfate], it took 6.24 µM to reach half-maximal inhibition (IC50). Regarding `CCOC(=O)C1(c2ccccc2)CCN(CCC(C#N)(c2ccccc2)c2ccccc2)CC1` [Diphenoxylate hydrochloride], the IC50 is 0.624 µM. In the case of `O=C(Oc1ccccc1)c1cccc(C(=O)Oc2ccccc2)c1` [Diphenyl isophthalate] it was 25 µM.

The molecule `O=C(Oc1ccccc1)c1ccccc1C(=O)Oc1ccccc1` [Diphenyl phthalate] gave an IC50 of 15.5 µM.

`c1ccc(Sc2ccccc2)cc1` [Diphenyl sulfide] showed an IC50 of 43.6 µM. Consider `Cc1cc(C)c(C(=O)P(=O)(c2ccccc2)c2ccccc2)c(C)c1` [Diphenyl(2,4,6-trimethylbenzoyl)phosphine oxide], for which inhibition was half-maximal at 20.3 µM (IC50). In the case of `CC[N+](CC)(CC)CCOC(=O)C(C1CCCC1)C1CCCC1` [Diponium bromide] it was 9.52 µM; in that of `CC(=O)OCCN(CCOC(C)=O)c1ccc(/N=N/c2ccc([N+](=O)[O-])cc2C#N)cc1` [Disperse Red 82], 24.5 µM; in that of `CCOP(=S)(OCC)SCCSCC` [Disulfoton], 43.3 µM.

Molecule `N#Cc1sc2c(=O)c3ccccc3c(=O)c=2sc1C#N` [Dithianon] had an IC50 of 30.9 µM.

In the case of `CCCCCCCCCCCCN` [Dodecylamine hydrochloride], inhibition was half-maximal at 13.3 µM (IC50). Under `CCCCCCCCCCCC[N+](C)(C)C` [Dodecyltrimethylammonium bromide] stands 21 µM; under `CCCCCCCCCCCC[N+](C)(C)C` [Dodecyltrimethylammonium chloride], 18 µM. In the case of `CCCCCCCCCCCC[N+](C)(C)CCOc1ccccc1` [Domiphen bromide] it was 1.34 µM; in that of `Cc1ccc(-n2nc(C(C)(C)C)cc2NC(=O)Nc2ccc(OCCN3CCOCC3)c3ccccc23)cc1` [Doramapimod], 20.1 µM. Under `Cc1ccc(CCn2c3c(c4cc(Cl)ccc42)CN(C)CC3)cn1` [Dorastine] stands 15.7 µM; under `CCN(CC)CCOC(=O)C(c1ccccc1)C1CCCCC1` (stereo not shown) [Drofenine hydrochloride], 7.86 µM; under `CCCCc1oc2ccc(NS(C)(=O)=O)cc2c1C(=O)c1ccc(OCCCN(CCCC)CCCC)cc1` [Dronedarone], 0.849 µM. In turn, `CCCCOc1ccc(C(=O)CCN2CCCCC2)cc1` [Dyclonine hydrochloride] had a half-maximal inhibitory concentration (IC50) of 20.1 µM.

The molecule `CCOP(=S)(Oc1ccc([N+](=O)[O-])cc1)c1ccccc1` (stereo not shown) [EPN] showed an IC50 of 0.776 µM. In the case of `CN1CCc2cc(Cl)c(O)cc2[C@H]2c3ccccc3CC[C@@H]21` [Ecopipam] it was 10.3 µM. Molecule `CN1CCN(c2ccccc2/C=C2\SCCN(c3ccc(Cl)c(Cl)c3)C2=O)CC1` [Elzasonan] gave an IC50 of 1.61 µM. In the case of `CCOCCn1c(N2CCCN(C)CC2)nc2ccccc21` [Emedastine difumarate] it was 6.24 µM; in that of `O=S1OC[C@@H]2[C@H](CO1)[C@]1(Cl)C(Cl)=C(Cl)[C@@]2(Cl)C1(Cl)Cl` (stereo partly shown) [Endosulfan I], 43.6 µM; in that of `O=S1(=O)OC[C@@H]2[C@H](CO1)[C@]1(Cl)C(Cl)=C(Cl)[C@@]2(Cl)C1(Cl)Cl` [Endosulfan sulfate], 16.1 µM. The molecule `Cc1ccc(C=C2C(=O)C3(C)CCC2C3(C)C)cc1` (stereo not shown) [Enzacamene] gave an IC50 of 30.7 µM.

Usually IC50 stands for the concentration that inhibits the measured activity by half. Lower therefore signals greater potency.
